Source: article PMC4563141, “Reverse Engineering of Vaccine Antigens Using High Throughput Sequencing-enhanced mRNA Display” (EBioMedicine, 2015)
Peptide text beside a SMILES is read from it.

Legend:
mAb41 Fab = test: Affinity measurements by Octet (binding kinetics of mAb41 Fab to biotinylated peptides); design: species or system mice; settings: Octet RED, 1:1 model fit
Protocol: Binding kinetics of mAb41 Fab to selected peptides were measured using a Fortebio Octet Red 96 instrument (Menlo Park, CA). All assays were performed in 1 × kinetic buffer (Fortebio). Biotinylated peptides were loaded onto streptavidin biosensors (Fortebio) for 100 s and quenched with biocytin. A two-fold dilution series of antibody Fab (prepared using a mouse IgG1 kit, Pierce) was used as analyte. Association was performed for 300 s and dissociation for 900 s. Binding constants were obtained by fitting sensorgrams with a 1:1 model using ForteBio Data Analysis Software.

mAb41 = test: Competitive ELISA for binding of mAb41 to immobilized peptide B; design: species or system mice; settings: 1 μg biotinylated pB immobilized, 12 ng mAb41, competitor peptide 0 to 0.8 μg
Protocol: Streptavidin coated 96-well ELISA plates were coated with 1 μg/well biotinylated peptide B as previously described ([Major et al., 1999]). Equal amounts of mAb (12 ng in 100 μl PBS containing 5% milk) were added to each well with increasing amounts of competitor peptide (from 0 to 0.8 μg). After 1 hr incubation at room temperature and washing, secondary antibody was added. The substrate reaction and absorbance reading were performed as described above.

## CSCC[C@H](NC(=O)[C@@H](N)CCSC)C(=O)N[C@@H](CCC(=O)O)C(=O)N[C@@H](CS)C(=O)N[C@@H](CCC(=O)O)C(=O)N[C@@H](CCCCN)C(=O)NCC(=O)N[C@@H](CCCCN)C(=O)N[C@@H](Cc1ccc(O)cc1)C(=O)N[C@H](C(=O)N[C@@H](CCC(N)=O)C(=O)NCC(=O)N[C@@H](Cc1c[nH]c2ccccc12)C(=O)N[C@@H](CC(C)C)C(=O)N[C@@H](CS)C(=O)N[C@@H](Cc1c[nH]cn1)C(=O)N[C@@H](CC(C)C)C(=O)N[C@@H](Cc1ccccc1)C(=O)N[C@@H](Cc1c[nH]c2ccccc12)C(=O)N[C@@H](CCC(=O)O)C(=O)N[C@@H](CC(=O)O)C(=O)N[C@@H](CS)C(=O)N[C@@H](CCC(N)=O)C(=O)N[C@@H](CC(=O)O)C(=O)N[C@@H](CCCNC(=N)N)C(=O)NCC(=O)N[C@@H](Cc1c[nH]c2ccccc12)C(=O)N[C@@H](CC(C)C)C(=O)N[C@@H](CCC(=O)O)C(=O)N[C@@H](CCC(N)=O)C(=O)N[C@@H](CC(C)C)C(=O)N[C@@H](CCCNC(=N)N)C(=O)N[C@@H](CC(N)=O)C(=O)N[C@@H](CO)C(=O)N[C@@H](CS)C(=O)N[C@@H](C)C(=O)O)C(C)C [p41_1] (H-MMECEKGKYVQGWLCHLFWEDCQDRGWLEQLRNSCA-OH; N-terminus and C-terminus assumed)
mAb41 Fab; association 300 s
  kon: 14400 M⁻¹ s⁻¹
mAb41 Fab; biotinylated peptide on streptavidin biosensor, mAb41 Fab 125 nM to 7.8 nM 2-fold series
  Kd: 16.7 nM
mAb41 Fab; dissociation 900 s
  kdis: 0.000241 s⁻¹
mAb41
  competition with wild type pB for binding to mAb41: inhibited binding of mAb41 to immobilized pB
